Experimental data as given in the NIST ThermoML archive (doi:10.1016/j.jct.2012.03.029).
± gives the expanded uncertainty stated by the source.

Test: mn = molality of the nth substance listed, in mol/kg
Conditions: 101 kPa, Liquid, m1 = 0.01; for speed of sound: Sing-around technique in a fixed-path interferometer; for mass density: Vibrating tube method

OC[C@H]1O[C@@H]2O[C@H]3[C@H](O)[C@@H](O)[C@@H](O[C@H]4[C@H](O)[C@@H](O)[C@@H](O[C@H]5[C@H](O)[C@@H](O)[C@@H](O[C@H]6[C@H](O)[C@@H](O)[C@@H](O[C@H]7[C@H](O)[C@@H](O)[C@@H](O[C@H]8[C@H](O)[C@@H](O)[C@@H](O[C@H]1[C@H](O)[C@H]2O)O[C@@H]8CO)O[C@@H]7CO)O[C@@H]6CO)O[C@@H]5CO)O[C@@H]4CO)O[C@@H]3CO [β-cyclodextrin] + O
Conditions	mass density [kg/m3]	speed of sound [m/s]
293.15 K	1001.93 ± 2	1484.4 ± 1.2
298.15 K	1000.75 ± 2	1498.5 ± 0.91
303.15 K	999.217 ± 2	1510.9 ± 0.88
308.15 K	997.709 ± 2	1521.5 ± 1.2
